Experimental data: patent publication US20230241124A1, “ISOTONIC LIPID EMULSION” (priority 2020, published 2023)
Where a name gives a salt, the structure may show the parent alone.

System: cardiac ischemia
Test: dosage study in the monkey model of cardiac ischemia
Assay type: in vivo
Description: This was done in groups of n=8 animals. […] The control groups consisted of sham operated animals undergoing no ischemia, and 2 groups undergoing cardiac ischemia: a saline control (n=8), and a “positive control” group (n=8) treated with Metoprolol tartrate (3 mg/kg), as usually applied to MI patients.

[1] = day 7, positive control 3 mg/kg

Structure (SMILES): COCCc1ccc(OCC(O)CNC(C)C)cc1 (stereo not shown) [Metoprolol tartrate]
- NT Pro BNP concentration [1]: 45.7 ± 15.4 pg/mL
- ratio of infarcted heart area [1]: 5.80+/−1.83%
- index of myocardial contractility (−dp/dt) (positive control 3 mg/kg): remained unchanged
- reduction of infarcted area versus saline control (positive control 3 mg/kg): 55%
